Results from US20220304992A1, “METHODS OF REJUVENATING AGED TISSUE BY INHIBITING 15-HYDROXYPROSTAGLANDIN DEHYDROGENASE (15-PGDH)” (The Board of Trustees of the Leland Stanford Junior …, priority 2019, published 2022).
Entries after “also recorded” stand apart in the source; their conditions may differ.

Tests used:
15-PGDH (Hpgd) = experiment: Senolytic ABT-263 treatment of aged mice: 15-PGDH in muscle; type: in vivo, mouse; details: 20 month mice, analyzed 2 months later
Protocol: For ABT-263 treatments, 20 month old C57/B16 mice were treated with vehicle (ethanol:polyethylene glycol 400:Phosal 50 PG) or ABT-263 (in ethanol:polyethylene glycol 400:Phosal 50 PG) by oral gavage for 2 cycles of 1 week with a 2 week rest period between cycles as described previously (1). For the Duchenne muscular dystrophy (DMD) mouse model, we used 8-10 month old mdx4cv/mTRKO(G2) generated as previously described (2).
(§1) For ABT-263 treatments, 20 month old C57/B16 mice were treated with vehicle (ethanol:polyethylene glycol 400:Phosal 50 PG) or 50 mg/kg/day ABT-263 (in ethanol:polyethylene glycol 400:Phosal 50 PG) by oral gavage for 2 cycles of 1 week with a 2 week rest period between cycles as described previously (5). Intramuscular injection of PGE2 was carried out in young mice with either 13 nmol PGE2 (Cayman Chemicals) or vehicle control (PBS) into the TA muscle. Mouse transgenic strains were purchased from The Jackson Laboratory (EP4^flox/flox; EP4O) No. 028102 (6). We validated these genotypes by appropriate PCR-based strategies. Studies were performed with male mice.
We collected and prepared recipient Tibialis anterior (TA) or gastrocnemius (GA) muscle tissues for histology as previously described (6). […]

INK-ATTAC mice = experiment: AP20187 clearance of senescent cells in INK-ATTAC mice; type: in vivo, mouse; details: 16-month treatment
Description: We performed all experiments and protocols in compliance with the institutional guidelines of Stanford University and Administrative Panel on Laboratory Animal Care (APLAC). Middle aged (18-20 mo.) and aged (>24 mo.) mice C57BL/6 were obtained the US National Institute on Aging (NIA) for aged muscle studies, and young (2-4 mo.) wild-type C57BL/6 mice from Jackson Laboratory. INK-ATTAC mice were generated as previously described (1). INK-ATTAC healthspan assessments. INK-ATTAC mice were crossed onto the C57BL6/J genetic background and maintained in specific-pathogen free housing on a 12-hour dark/light cycle for study duration. At 12 months of age, male mice were either utilized for baseline healthspan assessments and terminal muscle harvest or randomized to receive twice-weekly vehicle or AP20187 (2 mg/kg intraperitoneal injection; B/B homodimerizer, Clontech) until assessment and sacrifice at 28 months of age (2). […] Time and distance to exhaustion was performed as previously described (4) for SW-treated mice and their controls.
We isolated and enriched myogenic cells as previously described (6-9). Briefly, hindlimb muscles were minced and digested using a collagenase and dispase solution by the MACs Dissociator (Miltenyi). Using FACs, for myogenic stem and progenitor cells we isolated cells negative for the hematopoietic lineage and non-muscle cells (CD45-/CD11b-/CD31-/Scal-) and sorted for a7-integrin*cells markers. For macrophages isolation we sorted a7-/Cd11b+/Cd11c-/F4/80^+ populations. For endothelial cells we sorted a7-/Cd11b-/Cd11c/CD31+. We generated and analyzed flow cytometry scatter plots using FlowJo v10.0.

myotubes = experiment: Differentiated (starved) cultured myotubes: Atrogin1 expression and diameter; type: cell-based, mouse
Protocol: For myotubes we performed fixation using 4% PFA, blocking and permeabilization using PBS/1% BSA/0.1% Triton X-100 and staining with primary antibodies anti-MyHC (Thermo Fisher Scientific, catalog #14-6503-82, clone MF-20, 1:500) and then with AlexaFluor secondary Antibodies (Jackson ImmunoResearch Laboratories, 1:500). We counterstained nuclei with DAPI (Invitrogen).
Primary myoblasts were grown in myogenic cell culture medium containing DMEM/F10 (50:50), 15% FBS, 2.5 ng ml-1 fibroblast growth factor-2 and 1% penicillin-streptomycin. For differentiation experiments, confluent myoblasts were grown in medium containing 5% horse serum, DMEM. […] Myoblasts were isolated from EP4^fl/fl mice and received either a mCherry/Cre lentivirus or a mock infection as previously described (5).
For cultured myotubes we performed fixation using 4% PFA, blocking and permeabilization using PBS/1% BSA/0.1% Triton X-100 and staining with primary antibodies anti-MYH (Thermo Fisher Scientific, catalog #14-6503-82, clone MF-20, 1:500) and then with AlexaFluor secondary Antibodies (Jackson ImmunoResearch Laboratories, 1:500). We counterstained nuclei with DAPI (Invitrogen). We acquired images using the KEYENCE BZ-X700 all-in-one fluorescence microscope (Keyence) with 20x/0.75 N.A. objectives. We analyzed the fiber area using the Keyence Advanced Analysis Software. For fiber area the entire maximum cross-sectional area of the muscle was quantified or at least 10 fields of LAMININ or WGA stained myofiber cross-sections encompassing over 400 myofibers were captured for each mouse as above. For fiber typing analysis, the MATLAB application SMASH-Semi-Automatic Muscle Analysis Using Segmentation of Histology, was used as previously described (12). Data analyses were blinded. The researchers performing the imaging acquisition and scoring were unaware of treatment condition given to sample groups analyzed.
Primary murine myoblasts were grown in myogenic cell culture medium containing DMEM/F10 (50:50), 15% FBS, 2.5 ng ml^−1 fibroblast growth factor-2 and 1% penicillin-streptomycin. […] For differentiation experiments, confluent myoblasts were grown in medium containing 5% horse serum, DMEM.

murine myotubes = experiment: Protein synthesis by in vitro SUnSET (puromycin incorporation); type: cell-based, mouse; details: PGE2 10 ng/ml daily, 4 d
Protocol: The SUnSET assay was used to monitor the rate of protein synthesis as previously described (4). Briefly, 10 min prior harvesting the cells, puromycin was added to culture medium at […]. As a control, cycloheximide to block protein translation was added. Cell extracts were then processed for western blotting using anti-puromycin 12D10 antibody (Millipore).

AKT/FOXO pathway = experiment: Immunoblots of human myotubes treated with PGE2; type: cell-based; details: PGE2 10 ng/ml, 15 or 30 minutes
Protocol: Primary murine myoblasts were grown in myogenic cell culture medium containing DMEM/F10 (50:50), 15% FBS, 2.5 ng ml^-1 fibroblast growth factor-2 and 1% penicillin-streptomycin. […] For differentiation experiments, confluent myoblasts were grown in medium containing 5% horse serum, DMEM. […] Total lysates were prepared using lysis buffer (50 mM Tris-HCl pH 7.5, 150 mM NaCl, 4 mM CaCl, 1.5% Triton X-100, protease inhibitors and micrococcal nuclease). […] We used the following antibodies: 15-PGDH (Santa Cruz Biotechnology, cat # sc-271418); phospho-AKT ([…]) (Cell Signaling cat #4060), AKT (Cell signaling cat #2920); phospho-FoxO1 ([…])/FoxO3a ([…]) Antibody (Cell Signaling cat #9464T); Foxo3a (Cell Signaling cat #2497); phospho-CREB (Ser133) (Cell Signaling cat #9198S); phospho-S6 ribosomal protein (Ser235/236) (Cell Signaling cat#4858); SMC1 (Bethyl Laboratories cat# […]). We used HRP conjugated secondary antibodies and developed by incubating the membranes with ECL Western Blotting Substrate (Nacalai USA) and imaging using the ChemiDoc Imaging System (BioRad).

[1] = test system: cyclic AMP response element binding protein (CREB); experiment: Immunoblots of muscle lysates after intramuscular PGE2; type: in vivo, mouse; details: young mice, 13 nmol i.m., 0, 30 or 60 minutes
Protocol: as §1
Total lysates were prepared using lysis buffer (50 mM Tris-HCl pH 7.5, 150 mM NaCl, 4 mM CaCl, 1.5% Triton X-100, protease inhibitors and micrococcal nuclease). For tissue extracts, lysates were homogenized a FastPrep 24 homogenizer (MP Biomedicals) for 40 seconds at a speed of 6 m/s. We used the following antibodies: 15-PGDH (Santa Cruz Biotechnology, cat # sc-271418); phospho-AKT (Ser 473) (Cell Signaling cat #4060), AKT (Cell signaling cat #2920); phospho-FoxO1 (Thr24)/FoxO3a (Thr32) Antibody (Cell Signaling cat #9464T); Foxo3a (Cell Signaling cat #2497); phospho-CREB (Ser133) (Cell Signaling cat #9198S); phospho-S6 ribosomal protein (Ser235/236) (Cell Signaling cat#4858); SMC1 (Bethyl Laboratories cat# A300-055A-T). […]

SMILES: CC1(C)CCC(c2ccc(Cl)cc2)=C(CN2CCN(c3ccc(C(=O)NS(=O)(=O)c4ccc(N[C@H](CCN5CCOCC5)CSc5ccccc5)c(S(=O)(=O)C(F)(F)F)c4)cc3)CC2)C1 [ABT-263, navitoclax]
- 15-PGDH (Hpgd) mRNA / gene expression levels in muscle (15-PGDH (Hpgd); 50 mg/kg/day oral gavage, 2 cycles, 50 mg/kg/day): reduced; also recorded: markedly decreased
- percentage of cells expressing 15-PGDH by immunohistochemistry (15-PGDH (Hpgd)): markedly decreased

SMILES: CC[C@H](C(=O)N1CCCC[C@H]1C(=O)O[C@H](CCc1ccc(OC)c(OC)c1)c1cccc(OCC(=O)NCC(CNC(=O)COc2cccc([C@@H](CCc3ccc(OC)c(OC)c3)OC(=O)[C@@H]3CCCCN3C(=O)[C@@H](CC)c3cc(OC)c(OC)c(OC)c3)c2)CN(C)C)c1)c1cc(OC)c(OC)c(OC)c1 [AP]
- 15-PGDH levels in FACS isolated macrophages (INK-ATTAC mice): reduced levels
- PGE2 levels in muscle by LC-MS/MS (INK-ATTAC mice): increase
- 15-PGDH transcript levels in muscle (INK-ATTAC mice; 2 mg/kg i.p. twice weekly): markedly reduced
- endurance (distance run on a treadmill until exhaustion and body weight) (INK-ATTAC mice; 28 months): increase
- grip strength (INK-ATTAC mice; 28 months): increase
- hindlimb muscle mass (TA and GA) (INK-ATTAC mice; 28 months): increase

SMILES: CC(C(=O)Nc1cc(C#N)ccc1CCCC(=O)O)c1ccc(F)c2ccccc12 (stereo not shown) [ONO-AE3-208]
- PGE2-induced increase of myotube diameter in the presence of the antagonist (myotubes; ONO-AE3-208 1 μM with PGE2 10 ng/ml): abrogated; also recorded: not seen

SMILES: CCCCC[C@H](O)/C=C/[C@H]1[C@H](O)CC(=O)[C@@H]1C/C=C\CCCC(=O)O [PGE2, Prostaglandin E2]
- protein synthesis quantified by puromycin incorporation (murine myotubes): increased
- FOXO (pFOXO3a) (AKT/FOXO pathway): inactivated
- pAKT levels (AKT/FOXO pathway): increased levels
- phospho-S6 ribosomal protein (pS6rp) (AKT/FOXO pathway): activated
- CREB activation in skeletal muscles [1]: activates; also recorded: activation
- myotube diameter (myotubes; starved (24 hr) or non-starved myotubes, PGE2 10 ng/ml, SW 1 μM): increased; also recorded: marked increase
- Atrogin1 expression (myotubes; starved myotubes, PGE2 10 ng/ml): greatly decreased
